Experimental data from a melting point compilation (Tetko et al.).

Row | SMILES | melting point [°C]
1 | Cc1cccc(C)c1NC(=O)CCl | 148
2 | CCCCCCCCCCCC(=O)OCCOCCO | 17.5
3 | COc1ccc(C=O)c(OC)c1OC | 40
4 | Fc1ccc2[nH]ccc2c1 | 45
5 | CC1=CC(=O)CC(C)(C)C1=O | 26 to 28
6 | C1OC1C1CO1 (stereo unspecified) | 4
7 | Clc1cc(Cl)c2oc3c(Cl)c(Cl)cc(Cl)c3c2c1 | 204
8 | CCOC(=O)c1sc2sc(C(=O)OCC)c(N=C3SCCS3)c2c1N=C1SCCS1 | 198
9 | CCC(Br)(CC)C(N)=O | 67
10 | ClCCCc1ccccc1 | -27
11 | Cc1nnc(NS(=O)(=O)c2ccc(N)cc2)s1 | 208
12 | CCCCCC(=NO)C(C)=O | 59
13 | CCCCC(C)CCO (stereo unspecified) | -90
14 | COc1ccc([N+](=O)[O-])c(SC(C)C(=O)O)n1 (stereo unspecified) | 196 to 199
15 | CCOCCOC(=O)CCCCCCCCC(=O)OCCOCC | -1
16 | O=CC(C=O)c1ccccc1[N+](=O)[O-] | 118 to 123
17 | Cc1cncc(Oc2ccc(Br)cc2)n1 | 58.5 to 60
18 | Cc1cc(C(F)(F)F)n2nc(N)c(/N=N/c3ccc(Cl)cc3Cl)c2n1 | 210
19 | On1nnc2ccc(Cl)cc21 | 197
20 | Ic1cc(I)c(I)c(I)c1 | 148
21 | Cc1cc(Cl)cc([N+](=O)[O-])c1 | 61

Row | SMILES | melting point [°C]
22 | CCC1(CC)C(=O)NCC(C)C1=O (stereo unspecified) | 76
23 | O=C(NCCCCCCCCNC(=O)C(Cl)Cl)C(Cl)Cl | 118 to 120
24 | O=c1[nH]c(=O)n(C2CC(O)C(CO)O2)cc1C(F)(F)F (stereo unspecified) | 188
25 | CN1CCN(C(=S)SSC(=S)N2CCN(C)CC2)CC1 | 142 to 143
26 | Oc1cccnc1I | 193
27 | Cc1cc2c(C)ccc(C)c2cc1C | 64
28 | N#CCOc1ccc(Cl)cc1Cl | 46 to 48
29 | O=[N+]([O-])c1ccc(O)c(CBr)c1 | 145 to 149
30 | COc1ccc(OCCBr)cc1 | 46 to 50
31 | CN1C(=O)C(O)N=C(c2ccccc2Cl)c2cc(Cl)ccc21 (stereo unspecified) | 206
32 | Cc1oc(S(=O)(=O)N2CCOCC2)cc1C(=O)O | 184 to 186
33 | Cc1cc(Br)c(Br)cc1C | 86
34 | CS(=O)(=O)c1cc(Cl)c(O)c(Cl)c1 | 223 to 224
35 | NCCC(=O)N[C@@H](Cc1c[nH]cn1)C(=O)O | 260
36 | c1cc(-c2cnco2)ccn1 | 127 to 128
37 | O=C(O)CC1CCCCC1 | 33
38 | O=C1NC(=O)C(=Cc2ccc(-c3cccc([N+](=O)[O-])c3)o2)C(=O)N1 | 280
39 | CC(C)=NN(c1ccccc1)P(=O)(N1CC1)N1CC1 | 120
40 | NS(=O)(=O)c1ccc(SCCCCO)c(F)c1 | 104
41 | O=[N+]([O-])c1c(Cl)c(Cl)cc(Cl)c1Cl | 100
42 | Cn1c(=O)[nH]c2ccccc21 | 192 to 196

Row | SMILES | melting point [°C]
43 | O=[N+]([O-])c1ccc2ncoc2c1 | 150 to 152
44 | CCC(C)Nc1c([N+](=O)[O-])cc(C(C)(C)C)cc1[N+](=O)[O-] (stereo unspecified) | 60
45 | N#CCc1nc(-c2ccc3c(c2)OCCO3)cs1 | 116 to 118
46 | CC(C)(C)c1ccc(CCO)cc1 | 33
47 | Cc1cc(C)c(CCl)cc1CCl | 97 to 99
48 | Nc1c(I)cc([N+](=O)[O-])cc1I | 251 to 256
49 | Sc1nnc(-c2cc(Cl)nc(Cl)c2)o1 | 205 to 206
50 | Cc1ccc(Cc2c(N)nn3c(C)cc(C)nc23)cc1 | 178 to 179
51 | CCCC1Nn2c(nnc2-c2ccc(OCC)cc2)S1 (stereo unspecified) | 90
52 | CCOC(=O)CC(=O)c1cc(F)c(Cl)nc1Cl | 68 to 72
53 | O=C1OC(=O)C2=C1Cc1cc3c(cc1C2)CC3 | 254
54 | Cc1cc2c(C#N)c3sc4ccccc4n3c(=O)c2c(C)n1 | 287
55 | COc1ccc([N+](=O)[O-])cn1 | 108
56 | CC(Cl)(Cl)C(=O)O | -5
57 | O=[N+]([O-])c1cc(C(F)(F)F)c(Cl)c([N+](=O)[O-])c1Nc1ncc(C(F)(F)F)cc1Cl | 117
58 | O=C(CCl)Nc1ccc(F)cc1F | 79 to 81
59 | COc1cc2c(cc1OC)C1CC(=O)C(CC(C)C)CN1CC2 (stereo unspecified) | 128
60 | CSC(C)(C)C=NO | 21
61 | ClCc1cc2cc(Br)ccc2o1 | 63 to 64

Results, then the compound that gave them:

Row | melting point [°C] | SMILES
62 | 184 | CC1=C(CC(=O)O)c2cc(F)ccc2C1=Cc1ccc(S(C)=O)cc1 (stereo unspecified)
63 | 128 to 133 | O=Cc1ccccc1-c1ccccc1C(=O)O
64 | 278 to 280 | c1ccc(N2CSc3nnc(-c4cccnc4)n3C2)nc1
65 | 267 to 268 | Nc1c(C=O)c(=O)oc2ccccc12
66 | 164 | N=C(N)NCC1COc2ccccc2O1 (stereo unspecified)
67 | 203 | COc1ccccc1-c1nnc2n1NC(c1ccc(Cl)cc1)S2 (stereo unspecified)
68 | 209 to 211 | CCOC(=O)c1c(NC(=S)Nc2ccc(F)cc2)sc2c1CCCC2
69 | 128 to 130 | CC(=O)OC1OC(COC(=O)c2ccccc2)C(OC(=O)c2ccccc2)C1OC(=O)c1ccccc1 (stereo unspecified)
70 | 190 | Oc1ccc(C2COc3cc(O)ccc3C2)cc1 (stereo unspecified)
71 | 186 | CC(=O)c1nn(-c2ccccc2[N+](=O)[O-])c(=N)s1
72 | 175 to 178 | NC(=S)c1ccc(Oc2ccc(C(F)(F)F)cn2)cc1
73 | 113 to 115 | CC(=O)N(c1ccccc1)c1nc(CCl)cs1
74 | 104 to 105 | Cc1onc(-c2ccccc2)c1I
75 | 217 | O=C(Oc1ccc(Cl)cc1Cl)c1ccc(C(=O)Oc2ccc(Cl)cc2Cl)cc1
76 | 57 | CC(C(=O)O)c1ccc(Cl)cc1 (stereo unspecified)
77 | 145 to 147 | O=C(Cl)c1ccc(-c2ccsc2)cc1
78 | 150 | COc1ccc(-c2onc(C(=O)c3ccco3)c2S(=O)(=O)c2ccccc2)cc1
79 | 222 to 223 | O=C(Nc1cccc2cc(OC(=O)c3ccccc3)ccc12)c1ccccc1
80 | 104 | CC12CCC(C(C(=O)c3cccc4ccccc34)C1=O)C2(C)C (stereo unspecified)
81 | 91 | COC(=O)c1ccc([N+](=O)[O-])c(O)c1
82 | 93 to 94 | CCCC(=O)c1cc2ccccc2oc1=O
83 | 110 to 111 | CCOC(=O)c1cc(C)nc2ccc(Br)cc12
84 | 295 | O=C1NC(=NN=Cc2ccccc2)SC1=Cc1ccccc1
85 | 330 | O=C(O)/C=C/c1ccc2ccc(=O)[nH]c2c1
86 | 275 to 280 | CN(C)c1ccc(P(=O)(c2ccc(N(C)C)cc2)c2ccc(N(C)C)cc2)cc1
87 | 120 | C=C(Br)CC(NC(=O)OCC1c2ccccc2-c2ccccc21)C(=O)O (stereo unspecified)
88 | 43 to 46 | CCCCCCCCCC1(C)N=C(c2ccccc2)C=[N+]1[O-] (stereo unspecified)
89 | 160 | COc1ccc(C2Nn3c(nnc3-c3ccccc3)S2)cc1 (stereo unspecified)
90 | 194 | O=C1CSC(=S)N1c1ccccc1
91 | 158 to 163 | O=C(O)c1ccccc1Nc1cccc(F)c1
